Source: PMC5937145, “Synergism of Antimicrobial Frog Peptides Couples to Membrane Intrinsic Curvature Strain” (Biophysical Journal, 2018)
Marks after values point to notes of the source that are not given here. Bridge positions count the residues as written; N and C are the ends. Ends that are not written are not given here. I, II: the chains in the order shown.

Tests used:
[1] = ANTS/DPX leakage of POPE/POPG LUVs; assay type: biochemical; settings: for Leakage: POPE/POPG LUVs, lipid 50 μM, pH 7.4, 37°C
Description: (§1) Large unilamellar vesicles (LUVs) of ∼100 nm size were prepared and assayed for AMP-induced fluorescence leakage as described previously ([23]). Intrinsic lipid curvatures were determined using a SAXSpace small-angle x-ray camera (Anton Paar, Graz, Austria) applying previously developed procedures ([24]). Monte Carlo (MC) simulations were performed using the Metropolis scheme and computationally efficient implicit-solvent coarse-grained models. Lipids were described by a three-bead model developed by Cooke and Deserno ([25]), and the peptide was modeled by a patchy spherocylinder ([26]). Free-energy calculations for peptide translocation were performed using the Wang-Landau method ([27]). For details of experimental and simulation procedures, see the Supporting Material. […]
Lipid films (20 mg total lipid) for dye-release experiments were prepared by mixing the appropriate amounts of dissolved phospholipids before evaporation of solvents under a stream of nitrogen and stored in vacuum overnight. After addition of Hepes buffer containing the fluorophor/quencher ANTS/DPX (10 mM Hepes, 68 mM NaCl, 12.5 mM ANTS, 45 mM DPX, pH 7.4), formation of lipid vesicles was achieved by equilibration at 15°C above the lipid’s melting temperature and intermittent vigorous vortex mixing. PE/PG-mixtures were additionally homogenized by six freeze/thaw-cycles. Large unilamellar vesicles (LUVs) were obtained by 25 cycles of extrusion of the hydrated liposomes through a polycarbonate filter (Millipore-IsoporeTM, Merck, Vienna) of 0.1 µm pore size above the lipid’s melting temperature. Non-encapsulated fluorophore and quencher were removed by size-exclusion chromatography using SephadexTM G-75 (Sigma-Aldrich, Vienna) gel as described earlier (1). LUVs were eluted with Hepes buffer (10 mM Hepes, 140 mM NaCl, pH 7.4). Liposomal lipids were quantified by the determination of lipid phosphorus according the method described by (2). The final LUV concentration for dye-release experiments was adjusted to 50 µM in Hepes buffer (10 mM Hepes, 140 mM NaCl, pH 7.4). […]
Leakage of the aqueous content of ANTS/DPX-loaded LUVs upon incubation with peptides was determined according to (9) and as detailed previously (1). Briefly, 2 ml of LUV suspension was filled into quartz cuvettes and equilibrated at 37°C for 5 minutes. Incremental amounts of peptide solutions prepared in Hepes buffer were added to the LUV suspension with µ-pipettes and mixed using a magnetic stirrer to achieve final peptide concentrations ranging from 0.016 - 1 μM, corresponding to peptide-to-lipid molar ratios from 1:3200 to 1:50. Fluorescence emission was recorded 5 minutes before and after the addition of peptides on a Cary Eclipse Fluorescence Spectrophotometer (Varian Inc., now Agilent Technologies, California, US) using an excitation wavelength of λex = 360 nm and an emission wavelength λem = 530 nm. The slit widths for excitation and emission monochromators were set to 10 nm.
(§2) Percentage of leakage was calculated from the fraction of the leakage (10) […]
(§3) where F is the measured fluorescence, F0 is the initial fluorescence without peptide, and Fmax is the fluorescence corresponding to 100% leakage gained by addition of 1% Triton X-100. […]
In order to verify the dimeric or monomeric state of peptides, 2 µg of peptides were dissolved in loading buffer without DTT and separated by a one-dimensional SDS-PAGE using 5 % stacking and 18 % separating gels according to the method of Laemmli (11). […]

[2] = test system: E. coli K12; test: MIC, inhibition of bacterial growth (turbidimetric, Bioscreen C); assay type: cell-based, Escherichia coli; settings: E. coli K12, Mueller-Hinton broth without Ca2+, 37°C, no increment of turbidity after 48 h, CLSI guidelines
Description: To study the effect of magainins on metabolically active bacteria, we assessed the antimicrobial activity of the peptides by determining the MIC values according to Clinical and Laboratory Standards Institute (CLSI, formerly National Committee for Clinical Laboratory Standards) guidelines.
Inhibition of bacterial growth by frog peptides was determined using an automated turbidimetric-based system (Bioscreen C, Labsystem, Helsinki, Finland), which measures absorbance of cell cultures in 100-well plates at regular time intervals (λ = 580 nm). Assays were performed in Mueller-Hinton (MH) broth without Ca2+ (18) using Bioscreen polystyrene honeycomb 100-well plates. Briefly, serial dilutions of the AMPs or control antibiotics (gentamicin and ampicillin B) were made in MH broth and dispensed with a multi-pipette into […]
polystyrene honeycomb 100-well plates. E. coli K12 cells grown for 18–20 h on agar plates were suspended in saline adjusting the turbidity to an optical density at λ=565 nm (OD565) of 0.5 (~1 × 10^8 cells/mL) using a DEN-1B densitometer (Grant Instruments, Cambridge, UK).
A fifty-fold dilution of this E. coli suspension prepared in MH broth was mixed with 50 µL (1:1 volume ratio) of a given peptide solution by three times up and down pipetting. Resulting cell suspensions were grown at 37°C with continuous, low amplitude shaking. The turbidity was measured in intervals of 5 minutes (filter bandwidth: λ= 420 – 580 nm). MIC was considered as the minimum concentration of peptide that inhibited any increment of turbidity […]
2011. Studies on lactoferricin-derived Escherichia coli membrane-active peptides reveal differences in the mechanism of N-acylated versus nonacylated peptides. J Biol Chem […]
2. Broekhuyse, R. M. 1968. Phospholipids in tissues of the eye. […]
vinyl-ether phospholipids. Biochim Biophys Acta 152:307–315.
Chemistry and physics of lipids 154:64–67.
8. Israelachvili, J. N. 2011. Intermolecular and surface forces, 3rd ed. Academic Press, […]

[3] = cited from earlier work
Description: Table 2 Thermodynamics of AMP Insertion in PC Membranes According to the Wimley-White Hydrophobicity Scale | column: % helix in PC

[4] = ANTS/DPX leakage of lyso-PE/POPE/POPG LUVs; assay type: biochemical; settings: 1 μM peptide, lipid 50 μM, pH 7.4, 37°C, three independent measurements
Description: as §1
(§4) Lipid films (20 mg total lipid) for dye-release experiments were prepared by mixing the appropriate amounts of dissolved phospholipids before evaporation of solvents under a stream of nitrogen and stored in vacuum overnight. […] Liposomal lipids were quantified by the determination of lipid phosphorus according the method described by (2). […]
(§5) Leakage of the aqueous content of ANTS/DPX-loaded LUVs upon incubation with peptides was determined according to (9) and as detailed previously (1). […]
as §2

[5] = ANTS/DPX leakage of POPC/POPG LUVs; assay type: biochemical; settings: 1 μM peptide, lipid 50 μM, pH 7.4, 37°C, three independent measurements
Description: as §1, §4, §5, §2

[6] = ANTS/DPX leakage of POPC LUVs; assay type: biochemical; settings: within studied concentration range 0.016-1 μM, lipid 50 μM, pH 7.4, 37°C, three independent measurements
Description: as §1, §4, §5, §2

[7] = cited from earlier work; remark: listed apart in the source
Description: Intriguingly, however, cytoplasmic membranes of Gram-negative bacteria are enriched in lipids with negative intrinsic curvature, such as phosphatidylethanolamine (PE) ([20]). This prompted us to correlate membrane-permeabilizing activities of magainin monomers and dimers in different lipid-only model systems with various intrinsic curvatures J0 determined from small-angle x-ray scattering (SAXS). In particular, we studied the activity of L18W-PGLa and MG2a, as well as their analogs containing GGC linkers, which were used to form the L18W-PGLa-MG2a hybrid peptide (Fig. 1). The choice of L18W-PG ...

[8] = ANTS/DPX leakage of POPC/Chol LUVs; assay type: biochemical; settings: lipid 50 μM; for Leakage: dimers and mixture, highest concentration studied (1 μM), pH 7.4, 37°C
Description: as §1
Lipid films (20 mg total lipid) for dye-release experiments were prepared by mixing the appropriate amounts of dissolved phospholipids before evaporation of solvents under a stream of nitrogen and stored in vacuum overnight. After addition of Hepes buffer containing the fluorophor/quencher ANTS/DPX (10 mM Hepes, 68 mM NaCl, 12.5 mM ANTS, 45 mM DPX, pH 7.4), formation of lipid vesicles was achieved by equilibration at 15°C above the lipid’s melting temperature and intermittent vigorous vortex mixing. […] Liposomal lipids were quantified by the determination of lipid phosphorus according the method described by (2). […]
Leakage of the aqueous content of ANTS/DPX-loaded LUVs upon incubation with peptides was determined according to (9) and as detailed previously (1). […] Fluorescence emission was recorded 5 minutes before and after the addition of peptides on a Cary Eclipse Fluorescence Spectrophotometer (Varian Inc., now Agilent Technologies, California, US) using an excitation wavelength of λex = 360 nm and an emission wavelength λem = 530 nm. […]
as §2, §3

[9] = individual peptides at concentrations above 0.25 μM up to 1 μM (remained at the same level), three independent measurements
[10] = dimers, plateau/final value at high peptide concentration (up to 1 μM)

Substance | Leakage [1, 9] [%] | MIC [2] [µg/mL] | % helix in PC [3] | Leakage [4] | Leakage [5] | Maximal leakage [6] [%] | Dye release from lipid vesicles compared to native PGLa [7] | Leakage [1, 10] [%] | Leakage [8] | Permeabilization capabilities after DTT reduction ([1]; POPE/POPG vesicles, DTT (40 μM) added to peptide solution before mixing with LUVs) | Peptide concentration above which active (leakage) [8] [µM]
GIGKFLHSAKKFGKAFVGEIMNS-NH2 [MG2a] | ≤ 6 | 62.5 | 83 ^a % | – | – | – | – | – | – | – | –
GMASKAGAIAGKIAKVAWKAL-NH2 [L18W-PGLa] | ≤ 6 | ~31.25 | 72 ^b % | full LUV leakage | full LUV leakage | ≤ 10 | almost identical to that induced by native PGLa | – | – | – | –
I: GIGKFLHSAKKFGKAFVGEIMNSGGC-NH2 / II: GIGKFLHSAKKFGKAFVGEIMNSGGC-NH2 (disulfide I:26-II:26 (inferred)) [MG2a homodimers] | – | 7.8 | – | – | – | – | – | ~60 | not able to induce significant dye release | – | –
I: GMASKAGAIAGKIAKVAWKALGGC-NH2 / II: GMASKAGAIAGKIAKVAWKALGGC-NH2 (disulfide I:24-II:24) [L18W-PGLa homodimers] | – | ~7.8 | – | – | – | – | – | ~100 | ~74% | identical with that of L18W-PGLa peptide | > 0.1
